These are literature values, as cited in publication PMC4937428, “The Next Generation Non-competitive Active Polyester Nanosystems for Transferrin Receptor-mediated Peroral Transport Utilizing Gambogic Acid as a Ligand” (Scientific Reports, 2016).

On the set-up of the data set: method as in PMID 16918721. The following applies: described in the literature.

For the compound `CC(C)=CCC[C@]1(C)C=Cc2c(O)c3c(c(CC=C(C)C)c2O1)O[C@]12C(=C[C@@H]4C[C@H]1C(C)(C)O[C@@]2(C/C=C(/C)C(=O)O)C4=O)C3=O` [GA, gambogic acid], the Established safe dose is reported as 60 mg/kg.
